The values below come from US20080249400A1, “Intraoperative Imaging Of Hepatobiliary Structures” (University of Rochester Medical Center, priority 2006, published 2008).

One series concerns mammals. Conditions: used in mammals; cited from earlier work.
Series [1] has as its system liver. The series is described as follows: Rat liver visualized by laser excitation light delivered by fiber optics through a laparoscope. The series is classed as in vivo. The conditions noted are these: male Sprague-Dawley rat.
The test system of series [2] is liver. The series can be described thus: Liver visualization by fluorescent dye in adult pig model after RF thermal ablation (SPY imaging system). Conditions: intravenous bolus, liver subjected to RF ablation. The series is classed as in vivo.
The conditions of series [3]: cited from earlier work.

Turning to `N=C(N)c1ccc(/C=C/c2ccc(C(=N)N)cc2O)cc1` [Fluorogold], the toxicity in mammals result in the series with mammals is given as “low evidence of toxicity”.

In the case of `CC1(C)C(/C=C/C=C/C=C/C=C2\N(CCCCS(=O)(=O)O)c3ccc4ccccc4c3C2(C)C)=[N+](CCCCS(=O)(=O)[O-])c2ccc3ccccc3c21` [ICG, indocyanine green], the toxicity in mammals entry in the series with mammals is given as “low evidence of toxicity”. Further, the “fluorescence of liver under laparoscopic laser excitation” value in the series on liver [1] was “The brightly fluorescing structure is the liver”. The “fluorescence of liver tissue (perfusion) under laser excitation” value in the series on liver [2] is “The lighter areas to the right and bottom sides of the photos indicate normal liver tissue”. Besides, the distribution entry in series [3] (after intravenous injection, with normal vascular permeability) was “remains intravascular”. The metabolism entry in series [3] (in the body) was “not metabolized in the body”. Besides, in series [3] (in vivo), the enterohepatic recirculation result was “does not undergo enterohepatic recirculation”, the excretion route result is on record as “excreted exclusively by the liver” and the intestinal reabsorption entry was “not reabsorbed from the intestine”.

As to Fast Blue, the toxicity in mammals entry in the series on mammals is recorded as “low evidence of toxicity”.
